Measured values published in ChEMBL document CHEMBL1142781, “Chemical modification of the naphthoyl 3-position of JWH-015: in search of a fluorescent probe to the cannabinoid CB2 receptor” (Bioorg Med Chem Lett, 2005).

Legend:
Cannabinoid receptor 2 [1] = molecular target: T1, Cannabinoid receptor 2 (Homo sapiens, UniProt P34972); assay: In vitro inhibitory activity towards human cannabinoid receptors 2 using fluorescence assay at 10 uM concentration; design: scale not given: the % may be the effect or the level left
T1 sequence (P34972 whole entry): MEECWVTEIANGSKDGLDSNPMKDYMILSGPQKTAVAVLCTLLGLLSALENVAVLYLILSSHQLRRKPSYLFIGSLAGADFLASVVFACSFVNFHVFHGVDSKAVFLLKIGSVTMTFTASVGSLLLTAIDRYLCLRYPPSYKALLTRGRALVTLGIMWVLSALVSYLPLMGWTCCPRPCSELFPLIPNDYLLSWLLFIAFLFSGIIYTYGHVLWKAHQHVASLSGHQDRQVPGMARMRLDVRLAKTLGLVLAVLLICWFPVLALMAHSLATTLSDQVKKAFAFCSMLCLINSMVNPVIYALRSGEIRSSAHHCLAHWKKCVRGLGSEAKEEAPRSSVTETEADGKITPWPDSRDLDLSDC

Cannabinoid receptor 2 [2] = molecular target: T1, Cannabinoid receptor 2; assay: Percentage ([35S]GTP-gamma-S binding was determined from basal towards human cannabinoid receptor 2 at 1 uM concentration […]; assay type: functional
Cannabinoid receptor 2 [3] = molecular target: T1, Cannabinoid receptor 2; assay: In vitro inhibitory activity towards human cannabinoid receptors 2 using fluorescence assay

Structure (SMILES) | Activity (Cannabinoid receptor 2 [1]) | Activity (Cannabinoid receptor 2 [2]) | Ki (Cannabinoid receptor 2 [3])
CCCn1c(C)c(C(=O)c2cc(NC(=O)CNc3ccc([N+](=O)[O-])c4nonc34)cc3ccccc23)c2ccccc21 | 25% |  | 
CCCn1c(C)c(C(=O)c2cccc3ccccc23)c2ccccc21 |  | 142% | 
CCCn1c(C)c(C(=O)c2cc(NC(=O)CN)cc3ccccc23)c2ccccc21 |  |  | 0.42 µM
CCCn1c(C)c(C(=O)c2cc([N+](=O)[O-])cc3ccccc23)c2ccccc21 |  | 134% | 0.143 µM
CCCn1c(C)c(C(=O)c2cc(N)cc3ccccc23)c2ccccc21 |  | 151% | 0.191 µM
